What all share (type): biochemical
Assay [1] concerns the target T1, MMP-1FL (full length interstitial collagenase) (Homo sapiens, UniProt P03956).
T1 sequence (P03956 100-469): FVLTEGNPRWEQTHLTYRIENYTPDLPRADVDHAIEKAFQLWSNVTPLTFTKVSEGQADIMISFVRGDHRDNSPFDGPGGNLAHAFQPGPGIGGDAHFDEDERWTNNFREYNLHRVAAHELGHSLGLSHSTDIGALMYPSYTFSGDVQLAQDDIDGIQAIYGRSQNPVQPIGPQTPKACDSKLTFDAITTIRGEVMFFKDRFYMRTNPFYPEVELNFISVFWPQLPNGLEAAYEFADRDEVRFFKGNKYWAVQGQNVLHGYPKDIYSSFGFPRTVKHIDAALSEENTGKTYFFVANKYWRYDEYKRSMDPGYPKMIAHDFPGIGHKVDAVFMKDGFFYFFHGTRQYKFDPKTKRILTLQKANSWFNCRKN
The assay is described as follows: Thiopeptolide hydrolysis assay, MMP-1FL. The settings on record: thiopeptolide substrate, HEPES pH 7.0, 22° C. An excerpt: (§1) The assays measure the amount by which a test compound reduces the hydrolysis of a thiopeptolide substrate catalyzed by a matrix metalloproteinase enzyme. Such assays are described in detail by Ye et al., in Biochemistry, 1992;31(45):11231-11235, which is incorporated herein by reference.
(§2) Thiopeptolide substrates show virtually no decomposition or hydrolysis at or below neutral pH in the absence of a matrix metalloproteinase enzyme. A typical thiopeptolide substrate commonly utilized for assays is Ac-Pro-Leu-Gly-thioester-Leu-Leu-Gly-OEt. A 100 μL assay mixture will contain 50 mM of N-2-hydroxyethylpiperazine-N′-2-ethanesulfonic acid buffer (“HEPES”) at pH 7.0, 10 mM CaCl2, 100 μM thiopeptolide substrate, and 1 mM 5,5″-dithio-bis-(2-nitro-benzoic acid) (DTNB). The thiopeptolide substrate concentration may be varied from, for example, 10 to 800 μM to obtain Km and Kcat values. The change in absorbance at 405 nm is monitored on a Thermo Max microplate reader (Molecular Devices, Menlo Park, Calif.) at room temperature (22° C.). The calculation of the amount of hydrolysis of the thiopeptolide substrate is based on E412=13600 M^−1 cm^−1 for the DTNB-derived product 3-carboxy4-nitrothiophenoxide. Assays are carried out with and without matrix metalloproteinase inhibitor compounds, and the amount of hydrolysis is compared for a determination of inhibitory activity of the test compounds.
(§3) Several representative compounds have been evaluated for their ability to inhibit various matrix metalloproteinase enzymes. In Table I, MMP-1FL refers to full length interstitial collagenase; MMP-2FL refers to full length Gelatinase A; MMP-3CD refers to the catalytic domain of stromelysin-1; MMP-7FL refers to full length matrilysin; MMP-9FL refers to full length Gelatinase B; MMP-13CD refers to the catalytic domain of collagenase 3; and MMP-14CD refers to the catalytic domain of MMP-14. Test compounds were evaluated at various concentrations in order to determine their respective IC50 values, the micromolar concentration of compound required to cause a 50% inhibition of the catalytic activity of the respective enzyme.

Assay [2] has as its target T2, MMP-2FL (full length Gelatinase A) (Homo sapiens, UniProt P08253).
T2 sequence (P08253 110-660): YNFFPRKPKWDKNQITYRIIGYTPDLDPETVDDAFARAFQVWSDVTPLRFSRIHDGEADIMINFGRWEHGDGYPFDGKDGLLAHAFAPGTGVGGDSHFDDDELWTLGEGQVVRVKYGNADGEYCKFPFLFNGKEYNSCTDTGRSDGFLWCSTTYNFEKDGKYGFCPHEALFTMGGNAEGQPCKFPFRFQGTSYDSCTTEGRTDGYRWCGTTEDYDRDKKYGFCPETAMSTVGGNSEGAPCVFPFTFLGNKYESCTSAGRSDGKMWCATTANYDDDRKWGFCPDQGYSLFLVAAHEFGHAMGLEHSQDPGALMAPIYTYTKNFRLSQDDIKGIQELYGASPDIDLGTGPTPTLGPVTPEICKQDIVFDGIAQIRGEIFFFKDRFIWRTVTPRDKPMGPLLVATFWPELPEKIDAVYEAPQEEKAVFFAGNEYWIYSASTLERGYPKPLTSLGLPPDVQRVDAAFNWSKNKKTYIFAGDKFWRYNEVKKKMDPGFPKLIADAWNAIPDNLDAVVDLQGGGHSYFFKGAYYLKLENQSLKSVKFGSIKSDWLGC
The assay is described as follows: Thiopeptolide hydrolysis assay, MMP-2FL. The settings on record: thiopeptolide substrate, HEPES pH 7.0, 22° C.

The target in assay [3] is MMP-3CD (catalytic domain of stromelysin-1) (Homo sapiens, UniProt P08254). As to the kind of experiment: Thiopeptolide hydrolysis assay, MMP-3CD. The settings on record: thiopeptolide substrate, MES pH 6.0.
MMP-3CD (catalytic domain of stromelysin-1), sequence (P08254 100-272 limits assumed): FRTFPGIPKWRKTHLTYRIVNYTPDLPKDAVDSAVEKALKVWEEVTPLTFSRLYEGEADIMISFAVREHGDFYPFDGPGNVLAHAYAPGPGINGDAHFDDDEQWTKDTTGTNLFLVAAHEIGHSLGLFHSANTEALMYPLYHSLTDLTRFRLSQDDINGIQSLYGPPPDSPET
Assay [4] deals with T3, MMP-7FL (full length matrilysin) (Homo sapiens, UniProt P09237).
T3 sequence (P09237 95-267): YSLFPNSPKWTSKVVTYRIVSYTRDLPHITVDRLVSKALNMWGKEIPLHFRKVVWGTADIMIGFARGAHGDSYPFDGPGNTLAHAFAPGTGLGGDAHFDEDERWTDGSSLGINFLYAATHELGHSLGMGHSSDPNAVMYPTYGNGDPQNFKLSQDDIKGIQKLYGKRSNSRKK
The assay is described as follows: Thiopeptolide hydrolysis assay, MMP-7FL. The settings on record: thiopeptolide substrate, HEPES pH 7.0, 22° C.
Source text: as §1, §2, §3

Assay [5] addresses MMP-9FL (full length Gelatinase B) (Homo sapiens, UniProt P14780). The assay is described as follows: Thiopeptolide hydrolysis assay, MMP-9FL. The settings on record: thiopeptolide substrate, HEPES pH 7.0, 22° C.
Assay [6] has as its target T4, MMP-12CD (Homo sapiens, UniProt P39900).
T4 construct: MMP-12CD
The assay is described as follows: Thiopeptolide hydrolysis assay, MMP-12CD. The conditions noted are these: thiopeptolide substrate, HEPES pH 7.0, 22° C.
Source text: as §1, §2, §3

For assay [7], the target named is MMP-13CD (catalytic domain of collagenase 3) (Homo sapiens, UniProt P45452). The assay is described as follows: Thiopeptolide hydrolysis assay, MMP-13CD. The conditions noted are these: thiopeptolide substrate, HEPES pH 7.0, 22° C.
Assay [8] has as its target MMP-14CD (catalytic domain of MMP-14) (Homo sapiens, UniProt P50281). As to the kind of experiment: Thiopeptolide hydrolysis assay, MMP-14CD. The settings on record: thiopeptolide substrate, HEPES pH 7.0, 22° C.
Source text: as §1, §2, §3

T4 sequence (P39900 106-263 limits assumed): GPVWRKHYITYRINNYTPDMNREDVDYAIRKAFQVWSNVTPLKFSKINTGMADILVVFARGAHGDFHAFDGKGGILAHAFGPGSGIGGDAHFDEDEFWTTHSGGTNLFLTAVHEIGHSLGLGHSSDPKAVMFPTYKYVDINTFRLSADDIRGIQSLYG
MMP-9FL (full length Gelatinase B), sequence (P14780 94-707, species assumed): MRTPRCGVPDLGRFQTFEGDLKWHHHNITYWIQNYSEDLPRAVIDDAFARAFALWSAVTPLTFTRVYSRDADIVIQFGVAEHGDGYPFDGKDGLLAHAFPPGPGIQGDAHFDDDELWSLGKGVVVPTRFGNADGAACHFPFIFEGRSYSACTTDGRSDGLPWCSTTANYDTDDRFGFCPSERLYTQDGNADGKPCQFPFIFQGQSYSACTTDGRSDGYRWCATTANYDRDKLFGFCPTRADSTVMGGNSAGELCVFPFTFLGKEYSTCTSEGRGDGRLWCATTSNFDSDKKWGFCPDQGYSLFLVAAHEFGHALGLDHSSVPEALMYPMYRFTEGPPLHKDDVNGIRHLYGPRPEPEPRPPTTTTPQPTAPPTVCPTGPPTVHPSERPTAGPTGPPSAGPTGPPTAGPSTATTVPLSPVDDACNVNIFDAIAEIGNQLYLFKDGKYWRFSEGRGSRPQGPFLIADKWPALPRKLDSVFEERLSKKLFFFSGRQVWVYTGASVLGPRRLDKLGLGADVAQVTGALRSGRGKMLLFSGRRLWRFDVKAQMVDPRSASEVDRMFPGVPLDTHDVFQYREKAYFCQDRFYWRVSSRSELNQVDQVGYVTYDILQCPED

Turning to `CC1(C)SCCN(S(=O)(=O)c2ccc(-c3ccc4ccccc4c3)cc2)[C@H]1C(=O)O` [Example 36, (S)-2,2-Dimethyl-4-(4-naphthalen-2-yl-benzenesulfonyl)-thiomorpholine-3-carboxylic acid], the IC50 (usually the concentration at which inhibition is half-maximal) in assay [1] is 10.8 µM; in assay [2], 0.00635 µM; in assay [3], 0.0104 µM; in assay [4], 31.7 µM; in assay [5], 0.13 µM; in assay [6], 0.00113 µM. The IC50 in assay [7] worked out at 0.0108 µM; in assay [8], 0.0567 µM.

For `CCOc1ccc(-c2ccc(S(=O)(=O)N3CCSC(C)(C)[C@@H]3C(=O)O)cc2)cc1` [Example 43, (S)-4-(4′-Ethoxy-biphenyl-4-sulfonyl)-2,2-dimethyl-thiomorpholine-3-carboxylic acid], the half-maximal inhibitory concentration (IC50) in assay [1] was determined as 7.95 µM; in assay [2] it was 0.0023 µM; in assay [3], 0.0038 µM; in assay [4] it was 70 µM; in assay [5], 0.018 µM; in assay [6] it was 0.001 µM. Besides, the values for the IC50 in assay [7] and in assay [8] were 0.0033 µM and 0.16 µM, respectively.

(Values after patent US6686355B2, “Biphenyl sulfonamides useful as matrix metalloproteinase inhibitors” (Warner-Lambert Company, priority 2001, dated 2004).)
